Here are results for 18 compounds from BindingDB's records for doi:10.1016/j.bmc.2003.11.015 (Bristol-Myers Squibb Pharmaceutical Research Institute, 2004).

Usually pKi stands for −log10 of the Ki, conventionally taken in molar units. Read a low pKi as a high Ki.

The target of assay [1] is D(2) dopamine receptor (Homo sapiens, UniProt P14416).
The next assay concerns the target D(1A) dopamine receptor (Rattus norvegicus, UniProt P18901).
The target in assay [2] is D(2) dopamine receptor (Rattus norvegicus, UniProt P61169).
Sequence of D(2) dopamine receptor (Rattus norvegicus, UniProt P61169) (P61169 whole entry): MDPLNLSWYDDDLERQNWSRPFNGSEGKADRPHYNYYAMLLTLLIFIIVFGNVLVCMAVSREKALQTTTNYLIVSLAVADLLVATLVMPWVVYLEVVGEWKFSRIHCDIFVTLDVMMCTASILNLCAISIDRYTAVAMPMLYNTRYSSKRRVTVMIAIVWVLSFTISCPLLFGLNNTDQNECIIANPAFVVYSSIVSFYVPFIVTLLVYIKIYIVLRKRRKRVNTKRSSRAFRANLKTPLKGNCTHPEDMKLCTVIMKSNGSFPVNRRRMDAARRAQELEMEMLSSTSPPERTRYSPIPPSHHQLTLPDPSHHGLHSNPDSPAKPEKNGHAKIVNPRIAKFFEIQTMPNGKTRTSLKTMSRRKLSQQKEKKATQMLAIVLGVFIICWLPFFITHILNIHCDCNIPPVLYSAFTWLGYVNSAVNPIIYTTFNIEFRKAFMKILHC

SMILES strings stand for the structures. pKi: −log10 of the molar value. Structures can show the parent of a compound that is named as a salt.

Sequence of D(2) dopamine receptor (Homo sapiens, UniProt P14416) (P14416 whole entry): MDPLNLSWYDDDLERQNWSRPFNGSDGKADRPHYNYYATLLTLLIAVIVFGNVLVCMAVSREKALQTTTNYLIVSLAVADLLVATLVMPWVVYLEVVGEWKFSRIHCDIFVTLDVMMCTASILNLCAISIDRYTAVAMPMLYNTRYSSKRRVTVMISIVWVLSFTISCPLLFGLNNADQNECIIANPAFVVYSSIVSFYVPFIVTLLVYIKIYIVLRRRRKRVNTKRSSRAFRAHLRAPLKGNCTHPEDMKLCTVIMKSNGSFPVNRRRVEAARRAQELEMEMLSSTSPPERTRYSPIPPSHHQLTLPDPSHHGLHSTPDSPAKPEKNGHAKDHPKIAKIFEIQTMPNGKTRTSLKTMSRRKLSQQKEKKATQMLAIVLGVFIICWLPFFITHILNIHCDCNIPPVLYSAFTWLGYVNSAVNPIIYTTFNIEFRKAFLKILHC
Sequence of D(1A) dopamine receptor (P18901 whole entry): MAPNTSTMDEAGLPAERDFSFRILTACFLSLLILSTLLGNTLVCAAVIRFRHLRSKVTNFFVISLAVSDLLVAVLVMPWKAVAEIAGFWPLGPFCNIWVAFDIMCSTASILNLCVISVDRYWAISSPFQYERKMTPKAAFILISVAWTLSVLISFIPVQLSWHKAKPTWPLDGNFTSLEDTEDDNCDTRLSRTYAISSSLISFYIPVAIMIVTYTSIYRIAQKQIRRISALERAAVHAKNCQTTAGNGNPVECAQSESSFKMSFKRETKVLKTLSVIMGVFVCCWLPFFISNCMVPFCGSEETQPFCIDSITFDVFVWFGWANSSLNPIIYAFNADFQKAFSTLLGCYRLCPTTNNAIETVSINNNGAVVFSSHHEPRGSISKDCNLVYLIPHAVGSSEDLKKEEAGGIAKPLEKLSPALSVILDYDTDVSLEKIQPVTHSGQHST

As for `CC1NC[C@H]2c3ccc(O)c(O)c3Cc3cccc1c32` (mixture of isomers) [(+/-)-3-methyldinapsoline hydrobromide], the negative logarithm of the Ki (pKi) on D(2) dopamine receptor [1] was 7.40; on D(1A) dopamine receptor, 5.70.

For the compound `CCCCC1NC[C@H]2c3ccc(O)c(O)c3Cc3cccc1c32` (mixture of isomers) [(+/-)-3-n-butyldinapsoline hydrobromide], the pKi at D(1A) dopamine receptor is 6.52.

Regarding `CCC1c2cccc3c2[C@@H](CNC3)c2ccc(O)c(O)c21` (mixture of isomers) [(+/-)-7-ethyldinapsoline hydrobromide], the negative-log Ki (pKi) at D(2) dopamine receptor [2] is 6.36; on D(1A) dopamine receptor, 6.37.

`COC(=O)CC1c2cccc3c2[C@@H](CNC3)c2ccc(O)c(O)c21` (mixture of isomers) [(+/-)-7-methoxycarbonylmethyldinapsoline]: the pKi was 6.00 on D(2) dopamine receptor [2] and 5.62 on D(1A) dopamine receptor.

On to `CC1c2cccc3c2[C@@H](CNC3)c2ccc(O)c(O)c21` (mixture of isomers) [(+/-)-7-methyldinapsoline hydrobromide], for which the pKi was 6.80 at D(2) dopamine receptor [2] and 6.86 at D(1A) dopamine receptor.

Turning to `CC1c2cccc3c2[C@@H](CN1C)c1ccc(O)c(O)c1C3` (mixture of isomers) [NSC_0], the pKi at D(2) dopamine receptor [1] was less than 5.00; on D(1A) dopamine receptor, 5.02.

In the case of `Oc1ccc2c(c1O)Cc1cccc3c1[C@H]2CNC3C(F)(F)C(F)(F)C(F)(F)C(F)(F)F` (mixture of isomers) [NSC_0], the pKi was 7.11 on D(2) dopamine receptor [2] and 6.47 at D(1A) dopamine receptor.

For `CCCN1Cc2cccc3c2[C@@H](C1)c1ccc(O)c(O)c1C3` (racemic) [(+/-)-2-propyldinapsoline hydrobromide], the values for the pKi at D(2) dopamine receptor [1] and on D(1A) dopamine receptor were 7.82 and 5.70, respectively.

For `Oc1cc(Cl)c2c(c1O)Cc1cccc3c1[C@H]2CNC3` (racemic) [CAS_0], the pKi on D(2) dopamine receptor [2] is 7.80; on D(1A) dopamine receptor, 5.82.

Consider `CC1(C)c2cccc3c2[C@@H](CNC3)c2ccc(O)c(O)c21` (racemic) [NSC_0], for which the pKi at D(2) dopamine receptor [2] is 6.41; on D(1A) dopamine receptor it was 6.06.

For `CN1Cc2cccc3c2[C@@H](C1)c1ccc(O)c(O)c1C3` (racemic) [NSC_0], the pKi on D(2) dopamine receptor [2] was 7.15; on D(1A) dopamine receptor, 6.42.

In the case of `O=[N+]([O-])c1cc(O)c(O)c2c1[C@@H]1CNCc3cccc(c31)C2` (racemic) [NSC_0], the results for the negative-log Ki (pKi) at D(2) dopamine receptor [2] and on D(1A) dopamine receptor were 5.96 and less than 5.00, respectively.

As for `Oc1ccc2c(c1O)Sc1cccc3c1C2CNC3` (centres undefined) [1,2,3,11b-Tetrahydro[1]benzothiopyrano[4,3,2-de]isoquinolin-8,9-diol], the pKi at D(2) dopamine receptor [2] is 7.46; at D(1A) dopamine receptor, 6.27.

`Oc1ccc2c(c1O)Cc1ccc(O)c3c1[C@H]2CNC3` [4-hydroxydinapsoline hydrobromide]: the pKi on D(2) dopamine receptor [2] is 7.82; at D(1A) dopamine receptor it was 7.14.

`CCc1ccc2c3c1Cc1c(ccc(O)c1O)[C@@H]3CNC2` [6-ethyldinapsoline hydrobromide]: the pKi at D(2) dopamine receptor [1] is 7.57; at D(1A) dopamine receptor, 7.85.

As to `Oc1ccc2c(c1O)Cc1c(F)ccc3c1C2CNC3` (centres undefined) [NSC_0], the pKi was 6.77 on D(2) dopamine receptor [2] and 5.52 on D(1A) dopamine receptor.

Consider `Oc1ccc2c(c1O)Cc1c(F)ccc3c1[C@H]2CNC3` [NSC_0], for which the negative-log Ki (pKi) on D(2) dopamine receptor [2] is 8.15.

Regarding `Oc1ccc2c(c1O)Cc1ccc(F)c3c1[C@H]2CNC3` [NSC_0], the pKi was 7.55 on D(2) dopamine receptor [2] and 7.16 at D(1A) dopamine receptor.
